The nature of data set [1]: Cytotoxicity against MDBK cells at 20 uM after 48 hrs by MTT assay. It is filed as cell-based, Bos taurus. Conditions: cattle. A general note: Formazan colour is commonly taken as a measure of viable cells.
Data set [2] concerns Bovine viral diarrhea virus 1. Kind of data set: Antiviral activity against BVDV AV-69 infected in MDBK cells assessed as cytopathic effect after 3 to 4 days by plaque reduction assay. The data set is classed as functional, organism-based. Conditions: Bovine viral diarrhea virus isolates and strains, AV-69, MDBK.
Data set [3] is described as follows: Cytotoxicity against MDBK cells after 48 hrs by MTT assay. It is filed as cell-based, Bos taurus. Conditions: cattle.
In data set [4] the test system is Bovine viral diarrhea virus 1. Kind of data set: Ratio of ribavirin EC50 to compound EC50 for BVDV AV-69. The data set is classed as functional.

Where only a bound is given, the exact number is not on record here.

The term EC50 denotes the concentration needed to bring the measured effect to its halfway point. For `CC12COS(=O)(=O)CC1=C(c1ccc(C(F)(F)F)cc1)C(=O)O2` (stereo not drawn), in data set [1], the Activity entry is “Non-toxic”. Moreover, the EC50 in data set [2] was over 1.2 µM.

In the case of `Cc1ccc(C2=C3CS(=O)(=O)OCC3(C)OC2=O)cc1` (stereo not drawn), the Activity entry in data set [1] is “Non-toxic”. Further, in data set [2], the EC50 was over 1.2 µM.

For the molecule `CC12COS(=O)(=O)CC1=C(c1ccc(Cl)cc1)C(=O)O2` (stereo not drawn), in data set [1], the Activity entry is “Non-toxic”. Besides, the EC50 in data set [2] is 0.5 µM.

In general, CC50 refers to the concentration that lowers cell viability or growth by half. A low value points to greater toxicity to the cells. In turn, `CC12COS(=O)(=O)CC1=C(c1ccccc1)C(=O)O2` (stereo not drawn) displayed a CC50 at 48 h in data set [3] of over 20 µM. Besides, in data set [2], the EC50 amounted to 0.5 µM.

For `CC12COS(=O)(=O)CC1=C(c1ccccc1Br)C(=O)O2` (stereo not drawn), the “Ratio EC50” value in data set [4] stood at 10. The molecule further registered a CC50 at 48 h in data set [3] of over 20 µM. The EC50 in data set [2] came to 0.12 µM.

Regarding `CC12COS(=O)(=O)CC1=C(c1ccc(Br)cc1)C(=O)O2` (stereo not drawn), the Activity result in data set [1] is “Non-toxic”. Further, in data set [2], the half-maximal effective concentration (EC50) was found to be 1 µM.

As to `COc1ccc(C2=C3CS(=O)(=O)OCC3(C)OC2=O)cc1` (stereo not drawn), in data set [2], the concentration giving a half-maximal response (EC50) is over 1.2 µM.

Take `CC12COS(=O)(=O)CC1=C(c1ccc(F)c(F)c1)C(=O)O2` (stereo not drawn): the Activity result in data set [1] is listed as “Non-toxic”. In addition, in data set [2], the EC50 is over 1.2 µM.

Take `CC12COS(=O)(=O)CC1=C(c1ccccc1F)C(=O)O2` (stereo not drawn): the CC50 at 48 h in data set [3] was over 20 µM. Besides, the EC50 in data set [2] was 0.5 µM.

The molecule `CC12COS(=O)(=O)CC1=C(c1cccc(F)c1)C(=O)O2` (stereo not drawn) came in with a CC50 at 48 h in data set [3] of over 20 µM. Further, the EC50 in data set [2] was found to be 1 µM.

`CC12COS(=O)(=O)CC1=C(c1ccc(F)cc1)C(=O)O2` (stereo not drawn): the EC50 in data set [2] is over 1.2 µM.

In data set [3], `NC(=O)c1ncn([C@@H]2O[C@H](CO)[C@@H](O)[C@H]2O)n1` [RIBAVIRIN] showed a CC50 at 48 h of over 20 µM. In addition, the EC50 in data set [2] was determined as 1.3 µM.

Values taken from ChEMBL document CHEMBL3259604, “Synthesis and anti-BVDV activity of novel δ-sultones in vitro: implications for HCV therapies” (Bioorg Med Chem Lett, 2014).
